Source: ChEMBL document CHEMBL1697723, “A predictive ligand-based Bayesian model for human drug-induced liver injury” (Drug Metab Dispos, 2010)

Test system: Hepatotoxicity
Experiment: Human drug-induced liver injury (DILI) modelling dataset from Ekins et al
Settings: not given

Q: Which Hepatotoxicity does the source give for O=c1[nH]c2ccccc2n1C1CCN(CCCC(c2ccc(F)cc2)c2ccc(F)cc2)CC1 [PIMOZIDE] here?
A: Its Hepatotoxicity is “DILI negative (test set)”.

Q: For CN1CCN(CCCN2c3ccccc3Sc3ccc(Cl)cc32)CC1.O=C(O)/C=C\C(=O)O.O=C(O)/C=C\C(=O)O [PROCHLORPERAZINE MALEATE], which Hepatotoxicity is on record?
A: The Hepatotoxicity was “DILI positive (test set)”.

Q: How did the Hepatotoxicity turn out when COc1cc2c(c3oc(=O)c4c(c13)CCC4=O)[C@@H]1C=CO[C@@H]1O2 [AFLATOXIN] was run?
A: The Hepatotoxicity was “DILI positive (test set)”.

Q: With CCc1nc(N)nc(N)c1-c1ccc(Cl)cc1 [PYRIMETHAMINE] as the compound, how does the Hepatotoxicity read?
A: The Hepatotoxicity was “DILI positive (training set)”.

Q: For CC(N/C(=N\C#N)Nc1ccncc1)C(C)(C)C (stereo not drawn) [PINACIDIL ANHYDROUS], which Hepatotoxicity is on record?
A: The Hepatotoxicity was “DILI negative (training set)”.

Q: Oc1c(Cl)cc(Cl)c(Cl)c1Cc1c(O)c(Cl)cc(Cl)c1Cl [HEXACHLOROPHENE] was tested. Which Hepatotoxicity did it give?
A: The Hepatotoxicity was “DILI positive (test set)”.

Q: With CC(C)(O)c1ccccc1CC[C@@H](SCC1(CC(=O)O)CC1)c1cccc(/C=C/c2ccc3ccc(Cl)cc3n2)c1 [MONTELUKAST] as the compound, how does the Hepatotoxicity read?
A: Its Hepatotoxicity is “DILI negative (training set)”.

Q: With OC[C@@H](O)[C@@H](O)[C@H](O)[C@@H](O)CO [SORBITOL] as the compound, how does the Hepatotoxicity read?
A: Its Hepatotoxicity is “DILI negative (training set)”.

Q: For CN(C)c1ccc(O)c2c1C[C@H]1C[C@H]3[C@H](N(C)C)C(O)=C(C(N)=O)C(=O)[C@@]3(O)C(O)=C1C2=O.Cl [MINOCYCLINE HYDROCHLORIDE], which Hepatotoxicity is on record?
A: Its Hepatotoxicity is “DILI positive (test set)”.

Q: CCOC(=O)Nc1ccc2c(c1)N(C(=O)CCN1CCOCC1)c1ccccc1S2.Cl [MORICIZINE HYDROCHLORIDE] was tested. Which Hepatotoxicity did it give?
A: The Hepatotoxicity was “DILI positive (test set)”.

Q: How did the Hepatotoxicity turn out when Cc1cc(C(=O)NNCc2ccccc2)no1 [ISOCARBOXAZID] was run?
A: Its Hepatotoxicity is “DILI negative (test set)”.

Q: For C[C@H](CS)C(=O)N1CCC[C@H]1C(=O)O [CAPTOPRIL], which Hepatotoxicity is on record?
A: Its Hepatotoxicity is “DILI positive (training set)”.

Q: How did the Hepatotoxicity turn out when CCSCC[C@H](N)C(=O)O [ETHIONINE] was run?
A: The Hepatotoxicity was “DILI positive (training set)”.

Q: CCC[C@@H]1C[C@@H](C(=O)N[C@@H]([C@H]2O[C@H](SC)[C@H](O)[C@@H](O)[C@H]2O)[C@H](C)Cl)N(C)C1.Cl [CLINDAMYCIN HYDROCHLORIDE] was tested. Which Hepatotoxicity did it give?
A: Its Hepatotoxicity is “DILI positive (test set)”.

Q: CC(=O)S[C@@H]1CC2=CC(=O)CC[C@]2(C)[C@H]2CC[C@@]3(C)[C@@H](CC[C@@]34CCC(=O)O4)[C@H]12 [SPIRONOLACTONE] was tested. Which Hepatotoxicity did it give?
A: Its Hepatotoxicity is “DILI positive (training set)”.

Q: CC(C)(O/N=C(\C(=O)N[C@@H]1C(=O)N2C(C(=O)[O-])=C(C[n+]3ccccc3)CS[C@H]12)c1csc(N)n1)C(=O)O [CEFTAZIDIME] was tested. Which Hepatotoxicity did it give?
A: The Hepatotoxicity was “DILI negative (test set)”.

Q: Which Hepatotoxicity does the source give for CN1CCN(CCCN2c3ccccc3Sc3ccc(C(F)(F)F)cc32)CC1 [TRIFLUOPERAZINE] here?
A: The Hepatotoxicity was “DILI positive (training set)”.

Q: O=[N+]([O-])c1ccc(O)c([N+](=O)[O-])c1 [2,4-DINITROPHENOL] was tested. Which Hepatotoxicity did it give?
A: The Hepatotoxicity was “DILI positive (test set)”.

Q: How did the Hepatotoxicity turn out when CCCNC(=O)NS(=O)(=O)c1ccc(Cl)cc1 [CHLORPROPAMIDE] was run?
A: The Hepatotoxicity was “DILI positive (test set)”.

Q: For COC(=O)C1=C(C)NC(C)=C(C(=O)OCC(C)C)C1c1ccccc1[N+](=O)[O-] (stereo not drawn) [NISOLDIPINE], which Hepatotoxicity is on record?
A: The Hepatotoxicity was “DILI negative (training set)”.

Q: Which Hepatotoxicity does the source give for CCCC[C@@H](CC)COC(=O)c1ccccc1C(=O)OC[C@@H](CC)CCCC [BIS(2-ETHYLHEXYL)PHTHALATE] here?
A: Its Hepatotoxicity is “DILI positive (test set)”.

Q: Which Hepatotoxicity does the source give for CC[C@H]1OC(=O)[C@H](C)[C@@H](O[C@H]2C[C@@](C)(OC)[C@@H](O)[C@H](C)O2)[C@H](C)[C@@H](O[C@@H]2O[C@H](C)C[C@H](N(C)C)[C@H]2O)[C@](C)(OC)C[C@@H](C)C(=O)[C@H](C)[C@@H](O)[C@]1(C)O [CLARITHROMYCIN] here?
A: The Hepatotoxicity was “DILI positive (test set)”.

Q: For Cn1c(=O)c2c(ncn2C)n(C)c1=O [CAFFEINE], which Hepatotoxicity is on record?
A: The Hepatotoxicity was “DILI negative (test set)”.

Q: For Cl.N [AMMONIUM CHLORIDE], which Hepatotoxicity is on record?
A: Its Hepatotoxicity is “DILI negative (training set)”.

Q: For CC(C)NCC(O)COc1cccc2[nH]ccc12 (stereo not drawn) [PINDOLOL], which Hepatotoxicity is on record?
A: Its Hepatotoxicity is “DILI negative (training set)”.

Q: With NNC(=O)c1ccncc1 [ISONIAZID] as the compound, how does the Hepatotoxicity read?
A: Its Hepatotoxicity is “DILI positive (training set)”.

Same assay, conditions: Liver

Q: How did the Hepatotoxicity turn out when OCC(S)CS (stereo not drawn) [DIMERCAPROL] was run?
A: The Hepatotoxicity was “DILI positive (test set)”.

Q: Which Hepatotoxicity does the source give for Cl.NCCNCCNCCN here?
A: The Hepatotoxicity was “DILI positive (test set)”.
